53 molecules from the OPERA property sets (Mansouri et al. 2018) can be followed below.

The boiling point is the temperature at which the vapour pressure of the liquid equals the pressure above it. The term melting point denotes the temperature of the solid-liquid transition.

Conditions in the first data set: not given
`COc1ccc(N=Nc2ccccc2)cc1` came in with a boiling point of 340 °C and a melting point of 56 °C. In the same order, the values of `CCCCCCc1ccc2ccccc2c1` are 324 °C and -3 °C. As for `CC(=O)Cc1c[nH]c2ccccc12`, the melting point stood at 116 °C.

Turning to `C=C(C)C1CC=C(C)C(=O)C1` (configuration not stated), the boiling point turned out to be 230 °C. Same read-out and setting: the same measure for `CCCCCOC`: 99 °C; for `CC1CCC(C)C1=O` (configuration not stated): 146 °C. `O=C(O)CCl`: the boiling point was 189 °C, the log10 Henry constant (atm·m³/mol) is -8.03, the log10 vapour pressure (mmHg) is -1.19 and the melting point amounted to 63 °C. Further, the ready biodegradability result is “readily biodegradable”. The molecule `C=C(C)[C@H](C)O` gave a boiling point of 114 °C. Take `CCCCCCCC/C=C\CCCCCCCC#N`: the melting point is -1 °C. On to `Nc1ccc(S(=O)(=O)Nc2ccnn2-c2ccccc2)cc1`, for which the melting point came out at 181 °C. Consider `CCOC(=O)[C@H](CCc1ccccc1)N[C@H]1CCc2ccccc2N(CC(=O)O)C1=O`, for which the melting point worked out at 148 °C. `NC(=O)OCC(O)c1ccccc1` (configuration not stated) came in with a melting point of 112 °C. For `NC(=O)C=Cc1ccccc1`, the melting point stood at 149 °C.

As to `CCC(C)C1CCCCC1` (configuration not stated), the boiling point came out at 179 °C and the log10 vapour pressure (mmHg) amounted to 0.37. Regarding `COP(=S)(OC)SCC(=O)N(C)C=O`, the log10 vapour pressure (mmHg) was -6.07 and the melting point amounted to 25.5 °C. In the case of `O=C(O)CC(O)C(=O)O` (configuration not stated), the log10 vapour pressure (mmHg) is -7.48, the melting point came to 131 °C and the ready biodegradability entry was “readily biodegradable”. Consider `FC1(F)OC1(F)F`, for which the boiling point is -63.5 °C and the melting point is -118 °C. The molecule `C#CCCCCCCCCCCCCC` showed a boiling point of 268 °C and a melting point of 10 °C.

Regarding `CCCC(O)C(C)C` (configuration not stated), the boiling point is 141 °C and the log10 vapour pressure (mmHg) stood at 0.129. Turning to `Cc1c(C2(c3cc(Br)c(O)c(Br)c3C)OS(=O)(=O)c3ccccc32)cc(Br)c(O)c1Br`, the melting point is 218 °C. As for `c1ccc(Cc2ccccc2)cc1`, the boiling point was 265 °C, the log10 vapour pressure (mmHg) is -2.09, the melting point turned out to be 25.2 °C and the ready biodegradability entry is given as “not readily biodegradable”.

The molecule `O=C(O)c1cc(F)c(F)c(F)c1` registered a melting point of 98 °C. With `O=C(O)c1cc(S(=O)(=O)O)ccc1O`, the melting point was determined as 120 °C. `CC(=O)Oc1ccccc1C(=O)OC(=O)c1ccccc1OC(C)=O`: the melting point worked out at 83 °C. In the case of `c1ccc(-c2ccccn2)nc1`, the boiling point turned out to be 274 °C, the log10 Koc (L/kg) is 1.6 and the melting point stood at 72 °C. The molecule `N[C@@H](Cc1cc(I)c(Oc2cc(I)c(O)c(I)c2)c(I)c1)C(=O)O` displayed a melting point of 236 °C. As to `CCCCCCCCOC(=O)CCCCCCC`, the boiling point worked out at 307 °C and the melting point was -18.1 °C.

In the case of `ClCC(Cl)Cl`, the boiling point was found to be 114 °C, the log10 Henry constant (atm·m³/mol) was -3.08, the log10 Koa worked out at 3.4 and the log10 Koc (L/kg) turned out to be 1.89. In addition, the log10 vapour pressure (mmHg) was determined as 1.36, the melting point was -36.6 °C and the ready biodegradability result is recorded as “not readily biodegradable”. Consider `Clc1ccc2c(Cl)c(Cl)c(Cl)c(Cl)c2c1`, for which the log10 vapour pressure (mmHg) was -5.96. The molecule `CN(C(=O)Cl)c1ccccc1` displayed a boiling point of 280 °C and a melting point of 88.5 °C. Turning to `C=CC(=O)NCO`, the melting point was found to be 74.5 °C. The molecule `CC=CCCCCCCCCO` gave a boiling point of 248 °C and a melting point of 6 °C.

Turning to `C=CCC1CCCC1`, the boiling point worked out at 125 °C and the melting point is -111 °C. In the same order, the values of `COc1ccc(O)c(C=O)c1` are 248 °C and 4 °C. For `CCN(CC)Cc1cccnc1`, the log10 vapour pressure (mmHg) was -2.37. As to `O=CN1CCCCC1`, the boiling point was found to be 222 °C. Molecule `O=c1c(O)c(-c2ccc(O)cc2O)oc2cc(O)cc(O)c12` yielded a melting point of 304 °C.

`O=C(Nc1ccc(Cl)c(Cl)c1)c1cc(Cl)ccc1O` returned a melting point of 247 °C.

Molecule `Cc1ccnc(N)n1` gave a melting point of 160 °C. `COC(=O)C1(S(=O)(=O)c2ccc(Cl)cc2)CC1` came in with a melting point of 116 °C. As for `CCOC(=O)N(C)N=O`, the log10 vapour pressure (mmHg) worked out at 0.0719. Turning to `CC(C)CCC(C)C`, the boiling point worked out at 109 °C, the log10 biodegradation half-life (days) was 1.4, the log10 vapour pressure (mmHg) stood at 1.48 and the melting point was -91 °C.

The molecule `O=C(O)C(F)Cl` (configuration not stated) came in with a boiling point of 162 °C.

As to `C1=CC(c2ccc(C3CC=CCC3)cc2)CCC1` (configuration not stated), the ready biodegradability result is “not readily biodegradable”. For the molecule `Clc1ccc2cccc(Cl)c2c1`, the boiling point was determined as 286 °C and the melting point was 63.5 °C. Molecule `FCCCCCl` displayed a boiling point of 115 °C.

`C=C=C`: the boiling point was -34.4 °C, the log10 vapour pressure (mmHg) stood at 3.73 and the melting point was -136 °C. In turn, `Cc1cc(Br)ccc1Br` registered a boiling point of 236 °C and a melting point of 5.6 °C.

In the case of `COc1c(C(C)(C)C)cc([N+](=O)[O-])c(C)c1[N+](=O)[O-]`, the melting point came out at 85 °C.

The same data set, now with this note: fish.
For `Brc1ccc(Oc2c(Br)cc(Br)cc2Br)c(Br)c1`, the log10 BCF amounted to 6.36.

`Brc1ccc(Br)c(Br)c1` yielded a log10 BCF of 3.63. Still for that read-out and setting: the same measure for `O=C(O)c1ccccc1Cl`: 1; for `c1ccc(Cc2ccccc2)cc1`: 2.94. In the case of `ClCC(Cl)Cl`, the log10 BCF is 0.7 and the log10 biotransformation half-life (days) was -1.01. For the molecule `ClC1C(Cl)C(Cl)C(Cl)C(Cl)C1Cl` (configuration not stated), the log10 biotransformation half-life (days) is 1.49.
